In data set [1] the target is Cyclin-dependent kinase 2 (Homo sapiens, UniProt P24941). Kind of data set: Inhibition of CDK2.
The subject of a further data set is LoVo. Briefly: Antiproliferative activity against human LoVo cells assessed as BrdU incorporation after 48 hrs. It is filed as functional, cell-based. A general note: Incorporation of labelled thymidine or its analogues reports DNA synthesis.
Data set [2] can be described thus: Fraction unbound in rat serum. It is filed as ADME, cell-free.
Data set [3] addresses Cyclin-dependent kinase 4 (Homo sapiens, UniProt P11802). Briefly: Inhibition of CDK4.
The next data set deals with MCF7. Briefly: Antiproliferative activity against human MCF7 cells assessed as BrdU incorporation after 48 hrs. The data set is classed as functional, cell-based. The conditions noted are these: MCF7, 48 h.
The next data set can be described thus: physchem. The conditions noted are these: buffer, pH 7.4.
Data set [4] is described as follows: Lipophilicity, log D at pH 7.4. The conditions noted are these: buffer.
The nature of data set [5]: Cmax in mouse at 10 mg/kg, po. Further details: dose 10 mg/kg, route oral. The data set is classed as ADME, organism-based. The conditions noted are these: in vivo.
Another data set concerns the target G1/S-specific cyclin-E1 (Homo sapiens, UniProt P24864). Kind of data set: Inhibition of Cyclin E/CDK2.
For the next data set, the target named is T1, G1/S-specific cyclin-D3 (Homo sapiens, UniProt P30281).
T1 sequence (P30281 whole entry): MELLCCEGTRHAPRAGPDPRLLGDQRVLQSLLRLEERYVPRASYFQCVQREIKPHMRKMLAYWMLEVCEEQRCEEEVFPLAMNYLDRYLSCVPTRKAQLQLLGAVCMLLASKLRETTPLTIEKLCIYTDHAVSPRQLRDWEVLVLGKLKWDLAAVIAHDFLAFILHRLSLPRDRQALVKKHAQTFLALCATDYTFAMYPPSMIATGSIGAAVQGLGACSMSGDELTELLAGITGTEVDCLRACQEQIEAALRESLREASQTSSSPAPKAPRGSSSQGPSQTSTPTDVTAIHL
Kind of data set: Inhibition of Cyclin D3/CDK6.

Data set [6] in a line: Oral bioavailability in mouse at 10 mg/kg. The data set is classed as ADME, organism-based. Conditions: in vivo.
The nature of data set [7]: Clearance in mouse at 5.5 mg/kg, iv. It is filed as ADME, organism-based. On the set-up: dose 5.5 mg/kg, route intravenous. Conditions: in vivo.
Data set [8] in a line: Tmax in mouse at 10 mg/kg, po. Conditions: in vivo. The data set is classed as ADME, organism-based. On the set-up: dose 10 mg/kg, route oral.
Data set [9] can be described thus: Volume of distribution at steady state in mouse at 5.5 mg/kg, iv. It is filed as ADME, organism-based. On the set-up: dose 5.5 mg/kg, route intravenous. Conditions: in vivo, read-out: Vdss.
The target in data set [10] is G2/mitotic-specific cyclin-B1 (Homo sapiens, UniProt P14635). Kind of data set: Inhibition of Cyclin B1/CDK1.
G2/mitotic-specific cyclin-B1, sequence (P14635 whole entry): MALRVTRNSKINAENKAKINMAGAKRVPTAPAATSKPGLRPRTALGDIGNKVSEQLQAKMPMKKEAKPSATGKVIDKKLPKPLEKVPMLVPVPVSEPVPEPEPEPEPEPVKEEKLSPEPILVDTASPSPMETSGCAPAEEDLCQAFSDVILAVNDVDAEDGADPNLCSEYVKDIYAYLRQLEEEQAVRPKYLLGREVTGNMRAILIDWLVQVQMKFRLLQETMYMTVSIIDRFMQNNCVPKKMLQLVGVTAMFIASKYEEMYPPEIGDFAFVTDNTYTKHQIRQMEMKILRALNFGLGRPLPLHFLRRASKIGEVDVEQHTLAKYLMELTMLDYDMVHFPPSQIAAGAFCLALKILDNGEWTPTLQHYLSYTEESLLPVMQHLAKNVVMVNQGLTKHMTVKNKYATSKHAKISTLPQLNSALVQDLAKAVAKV
Data set [11] is described as follows: AUC (0 to t) in mouse at 10 mg/kg, po. It is filed as ADME, organism-based. Conditions: plasma. Further details: dose 10 mg/kg, route oral.

27 compounds from ChEMBL document CHEMBL1142453, “Imidazoles: SAR and development of a potent class of cyclin-dependent kinase inhibitors” (Bioorg Med Chem Lett, 2008) can be followed below.

In brackets after ≈: the same amount, converted by molar mass.

Cyclin-dependent kinase 4, sequence (P11802 whole entry): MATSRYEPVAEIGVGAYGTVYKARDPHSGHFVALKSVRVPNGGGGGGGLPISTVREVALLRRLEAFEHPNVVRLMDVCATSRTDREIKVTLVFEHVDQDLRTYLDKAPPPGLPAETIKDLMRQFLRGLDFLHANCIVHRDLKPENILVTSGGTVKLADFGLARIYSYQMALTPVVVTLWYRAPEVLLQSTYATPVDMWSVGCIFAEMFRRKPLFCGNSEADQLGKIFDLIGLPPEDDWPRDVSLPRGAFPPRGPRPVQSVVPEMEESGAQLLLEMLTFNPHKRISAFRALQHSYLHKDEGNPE
G1/S-specific cyclin-E1, sequence (P24864 whole entry): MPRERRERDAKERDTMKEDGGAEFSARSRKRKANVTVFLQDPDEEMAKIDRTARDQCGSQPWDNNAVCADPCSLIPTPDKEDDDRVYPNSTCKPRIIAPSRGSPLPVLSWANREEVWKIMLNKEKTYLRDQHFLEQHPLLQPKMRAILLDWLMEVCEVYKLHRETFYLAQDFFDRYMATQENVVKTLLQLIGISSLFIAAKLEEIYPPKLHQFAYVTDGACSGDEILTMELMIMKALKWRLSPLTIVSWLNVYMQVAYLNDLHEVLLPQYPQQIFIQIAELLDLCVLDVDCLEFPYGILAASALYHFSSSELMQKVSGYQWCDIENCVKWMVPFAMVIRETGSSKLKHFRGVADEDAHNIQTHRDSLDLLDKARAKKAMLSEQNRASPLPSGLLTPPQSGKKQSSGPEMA

The term IC50 denotes the point on the concentration scale where inhibition reaches its midpoint. A word on the fraction unbound: it is the share of the substance not bound to proteins or other matrix. For `CCn1c(-c2ccnc(Nc3ccc(S(=O)(=O)NCCOC)cc3)n2)cnc1C`, the IC50 amounted to 4 nM in [1], 1500 nM in the data set with LoVo and 1300 nM in data set [3]. The fraction unbound in data set [2] was 0.014.
In [1], `COCCN(C)S(=O)(=O)c1ccc(Nc2nccc(-c3cnc(C)n3C)n2)cc1` displayed an IC50 of 400 nM.
With `Cc1ncc(-c2ccnc(Nc3ccc(S(N)(=O)=O)cc3)n2)n1C`, the values for the IC50 (in data set [1]; in the data set on MCF7) were 11 nM and 870 nM, respectively.
For `CNS(=O)(=O)c1ccc(Nc2nccc(-c3cnc(C)n3C)n2)cc1`, in that order: under 3 nM and 500 nM.
One may read the solubility as the dissolved amount per volume that the medium holds. The term logD denotes the decadic logarithm of the distribution of all forms, ionised or not, between an organic phase and buffer at a given pH. Turning to `CN(C)CCCNS(=O)(=O)c1ccc(Nc2nccc(-c3cnc4cccnn34)n2)cc1`, the concentration in solution in the data set “physchem” (solubility) was 160 µM (≈ 72.4 µg/mL). Further, the fraction unbound in [2] is 0.148. The compound further displayed a logD in data set [4] of 1.4.
In data set [2], `COCCNS(=O)(=O)c1ccc(Nc2nccc(-c3cnc4cccnn34)n2)cc1` registered a fraction unbound of 0.008.
In the case of `Cc1ncc(-c2ccnc(Nc3ccc(S(=O)(=O)NCCN(C)C)cc3)n2)n1C`, the IC50 in [1] was 25 nM; in the data set with MCF7, 490 nM.
Regarding `COCCNS(=O)(=O)c1ccc(Nc2nccc(-c3cnc4ccccn34)n2)cc1`, the IC50 in [1] was under 12 nM; with MCF7, 400 nM.
With `COCCNS(=O)(=O)c1ccc(Nc2nccc(-c3cnc(C)n3CC(C)C)n2)cc1`, the half-inhibitory concentration (IC50) in data set [1] was 15 nM; with LoVo, 1800 nM.
With `CN(C)CCNS(=O)(=O)c1ccc(Nc2nccc(-c3cnc4cccnn34)n2)cc1`, the IC50 with MCF7 is 260 nM.
In general, Cmax refers to the peak of the concentration-time curve. In general, bioavailability refers to the share of a dose that reaches the circulation, judged against a reference dose that is usually intravenous. A low value points to poor availability. As usually defined, the clearance is a measure of how efficiently the substance is removed, as volume per time. A low value points to inefficient removal. For orientation: Tmax means the time at which the peak concentration occurs. For orientation: AUC(0-t) means the area under the concentration-time curve up to a stated or last time point. A low value points to low exposure. `Cc1ncc(-c2ccnc(Nc3ccc(S(C)(=O)=O)cc3)n2)n1C(C)C` [AZD-5438] displayed a Cmax in data set [5] of 6.4 µM. Further, the IC50 at G1/S-specific cyclin-E1 amounted to 6 nM; against G1/S-specific cyclin-D3, 21 nM; in the data set with LoVo, 630 nM; in data set [10], 16 nM. In addition, the bioavailability in data set [6] was 91%. Moreover, in data set [7], the clearance came to 21.8 mL/min/kg. For the same compound, the Tmax in data set [8] is 19.8 min. In addition, the Vd in data set [9] is 1.01 L/kg. Further, the solubility in “physchem” was found to be 218 µM (≈ 81 µg/mL). Further, the fraction unbound in data set [2] was 0.087. Besides, the logD in [4] was determined as 2.4. In data set [11], this compound showed an AUC(0-t) of 18.7 µM·h.
On to `COCCNS(=O)(=O)c1ccc(Nc2nccc(-c3cnc(C)n3C(C)C)n2)cc1`, for which the figures for the IC50 (in the data set with LoVo; in data set [3]) were 310 nM and 200 nM, respectively.
As to `CCn1c(-c2ccnc(Nc3ccc(S(C)(=O)=O)cc3)n2)cnc1C`, half-maximal inhibition in data set [1] (IC50) required 23 nM.
Take `CNS(=O)(=O)c1ccc(Nc2nccc(-c3cnc4cccnn34)n2)cc1`: the IC50 was under 3 nM in [1] and 560 nM with MCF7.
As for `Cc1ncc(-c2ccnc(Nc3ccc(S(=O)(=O)CCCN4CCOCC4)cc3)n2)n1C(C)C`, the IC50 was determined as 33 nM in data set [1], 1200 nM in the data set with LoVo and 210 nM in data set [3].
As for `NS(=O)(=O)c1ccc(Nc2nccc(-c3cnc4ccccn34)n2)cc1`, the results for the IC50 (in [1]; with MCF7) were 2 nM and 260 nM, respectively. This compound also had a solubility in “physchem” of 6.5 µM (≈ 2.38 µg/mL). The compound also had a free fraction (fraction unbound) in data set [2] of 0.001. In data set [4], this compound came in with a logD of 2.7.
With `COCCS(=O)(=O)c1ccc(Nc2nccc(-c3cnc(C)n3C(C)C)n2)cc1`, the IC50 in data set [1] came to 14 nM; in the data set on LoVo, 690 nM; in [3] it was 490 nM.
The like results for `Cc1ncc(-c2ccnc(Nc3ccc(S(=O)(=O)Cc4ccccc4)cc3)n2)n1C(C)C` were, in that order, 19 nM, 1500 nM and 1500 nM.
As for `CCCS(=O)(=O)c1ccc(Nc2nccc(-c3cnc(C)n3C(C)C)n2)cc1`, the IC50 in [1] was determined as 8 nM; in the data set with LoVo, 1800 nM.
The like results for `COCCNS(=O)(=O)c1ccc(Nc2nccc(-c3cnc(C)n3C3CCCC3)n2)cc1` were, in that order, under 3 nM and 610 nM.
Take `COCCNS(=O)(=O)c1ccc(Nc2nccc(-c3cnc(C)n3C)n2)cc1`: the IC50 in data set [1] was 8 nM; in the data set on MCF7, 620 nM; in the data set on LoVo, 4000 nM; in data set [3] it was 5600 nM.
As for `Cc1ncc(-c2ccnc(Nc3ccc(S(=O)(=O)CCCN(C)C)cc3)n2)n1C`, inhibition in data set [1] was half-maximal at 295 nM (IC50).
The compound `CN(C)CCNS(=O)(=O)c1ccc(Nc2nccc(-c3cnc4ccccn34)n2)cc1` had a solubility in the data set “physchem” of 31 µM (≈ 13.6 µg/mL). The fraction unbound in [2] came to 0.03. The compound further returned a logD in [4] of 2.7.
Regarding `Cc1ncc(-c2ccnc(Nc3ccc(S(=O)(=O)CC4CCCO4)cc3)n2)n1C(C)C` (stereo not drawn), the values for the IC50 (in [1]; with LoVo; in [3]) were 13 nM, 1200 nM and 530 nM, respectively.
For `COCCNS(=O)(=O)c1ccc(Nc2nccc(-c3c(C)nc(C)n3C)n2)cc1`, in that order: 68 nM, 9200 nM and over 8600 nM.
`Cc1ncc(-c2ccnc(Nc3ccc(S(=O)(=O)CCCN(C)C)cc3)n2)n1C(C)C`: the IC50 amounted to 36 nM in [1], 890 nM with LoVo and 140 nM in data set [3]. The compound also came in with a solubility in the data set “physchem” of over 6800 µM. The compound also came in with a fraction unbound in data set [2] of 0.32. Also, the logD in [4] is 1.3.
As for `Cc1ncc(-c2ccnc(Nc3ccc(S(=O)(=O)NCCCOC(C)C)cc3)n2)n1C`, the values for the IC50 (in [1]; in the data set on MCF7) were 6 nM and 320 nM, respectively.
